Test system: mammary adenocarcinoma MA17/A
Assay: Oral antitumor efficacy and toxicity against early stage mammary adenocarcinoma MA17/A grafted subcutaneously in mice
Assay type: in vivo
Details: for log cell kill: tumor doubling time 1.3 days
Method: Formulation II: 0.2 mg/ml of the compound of formula (la) was mixed in a solution comprising 5% ethanol, 5% Polysorbate 80, and 90% of an aqueous 5% glucose solution.
15 female C3H/HeN mice, each weighing approximately 20 g, were each administered Formulation II orally in a dose of 20.6 mg.kg^−1 per administration per mouse,12.8, 8.4 and 5.5 each day for 5 days.
Animals: The animals subjected to the experiment, generally mice, were subcutaneously grafted bilaterally with 30 to 60 mg of a mammary tumor fragment (adenocarcinoma MA17/A) on day 0. The animals bearing tumors were mixed before being assigned to the various treatment and control groups. Chemotherapy generally began from 3 to 7 days after grafting, depending on the type of tumour, and the animals were observed every day. The different animal groups were weighed 3 or 4 times a week until the maximum weight loss was attained, and the groups were then weighed at least once a week until the end of the trial.
Efficacy: The efficacy of the new pharmaceutical form was evaluated by:
the tumor growth inhibitor (T/C)
The T/C value in percent is an indication of antitumor effectiveness: [formula]
According to NCI standards, a T/C<42% is the minimal level to declare activity. A T/C<10% is considered to indicate high antitumor activity and is the level used by NCI to justify further development (Decision Network-2 level, DN-2).
The T/C value can be converted to an arbitrary activity rating according to the NCI criteria:
and quantified by the log cell kill which is determined by the following formula:
log10 cells killed=T−C(days)/3.32×Td
in which T−C represents the time in days for the tumors of the treated group (T) and the tumors of the non-treated group (C) to reach a predetermined value (750 mg for example). This method is described in T. H. CORBETT et al., Cancer, 40, 2660-2680 (1977); F.M. SCHABEL et al., Cancer Drug Development, Part B. Methods in Cancer Research, 17, 3-51, New York Academic Press Inc. (1979), the disclosure of which is incorporated by reference herein. A product is considered to be active if log10 cells killed is greater than or equal to 0.7. A product is considered to be very active if log10 cells killed is greater than 2.8.

[1] = p.o. 5.5 mg/kg/dose, days 3 to 7, total dose 27.5 mg/kg
[2] = p.o. 8.4 mg/kg/dose, days 3 to 7, total dose 42.0 mg/kg
[3] = p.o. 12.8 mg/kg/dose, days 3 to 7, total dose 64.0 mg/kg

In the case of `CO[C@H]1C(=O)[C@]2(C)[C@@H](OC)C[C@H]3OC[C@@]3(OC(C)=O)[C@H]2[C@H](OC(=O)c2ccccc2)[C@]2(O)C[C@H](OC(=O)[C@H](O)[C@@H](NC(=O)OC(C)(C)C)c3ccccc3)C(C)=C1C2(C)C` [Product of formula IA, 4α-acetoxy-2α-benzoyloxy-5β,20-epoxy-1β-hydroxy-7β,10β-dimethoxy-9-oxo-11-taxen-13α-yl (2R, 3S)-3tert-butoxycarbonylamino-2-hydroxy-3-phenylpropionate], the Comments [1] is reported as “Inactive”, the “Drug death (days or death)” value [1] is reported as 0/5 and the T-C [1] is reported as 2.3 days. For the same molecule, the “Time for median tumor to reach 750 mg” value [1] was 14.4 days, the “Average body weight change in % per mouse post last treatment (day)” value (p.o. 5.5 mg/kg/dose, days 3 to 7, total dose 27.5 mg/kg, day 8) was “+0.2(8) %” and the “Median tumor weight in mg on day 12 (range)” value (“Median tumor weight in mg” below) [1] was 271(107-432) mg. For the same molecule, the “T/C in % day 12” value [1] was 38%, the log cell kill [1] was 0.5 and the Comments [2] was “Active”. For the same molecule, the “Drug death (days or death)” value [2] was 0/5, the T-C [2] was 6.1 days and the “Time for median tumor to reach 750 mg” value [2] was 18.2 days. For the same molecule, the “Average body weight change in % per mouse post last treatment (day)” value (p.o. 8.4 mg/kg/dose, days 3 to 7, total dose 42.0 mg/kg, day 9) was −11.0(9) %, the “Median tumor weight in mg” value [2] was 0(0-268) mg and the “T/C in % day 12” value [2] was 0%. The log cell kill [2] was 1.4, the Comments [3] was “HNTD” and the “Drug death (days or death)” value [3] was 0/5. For the same molecule, the T-C [3] was 13.8 days, the “Time for median tumor to reach 750 mg” value [3] was 25.9 days and the “Average body weight change in % per mouse post last treatment (day)” value (p.o. 12.8 mg/kg/dose, days 3 to 7, total dose 64.0 mg/kg, day 10) was −17.9(10) %. The “Median tumor weight in mg” value [3] was 0(0-0) mg, the “T/C in % day 12” value [3] was 0% and the log cell kill [3] was 3.2. The Comments (p.o. 20.6 mg/kg/dose, days 3 to 7, total dose 103.0 mg/kg) was “Toxic” and the “Drug death (days or death)” value (p.o. 0.2 ml, 20.6 mg/kg/dose, days 3 to 7, total dose 103.0 mg/kg, female C3H/HeN mice) was 5/5(7,2d8,10,11).

From patent US20020082291A1, “NEW USE OF TAXOID DERIVATIVES” (priority 1999, published 2002)
